Laboratory results taken from patent US20210221812A1, “MATRINE a-KETOAMINE COMPOUNDS, PREPARATION METHOD THEREFOR AND USE THEREOF” (SHANGHAI XINGYE PHARMACEUTICAL TECHNOLOGY CO., LTD, priority 2018, published 2021).
Like-named read-outs stand apart in the source and are kept apart here. Values belong to the compound of their own block, whether it stands above or below them.

Legend:
TNF-α = TNF-α activity inhibiting assay (LPS-stimulated peripheral blood, ELISA); format: cell-based, human; details: compound 20 μM, LPS 10 ng/mL, 6 hours, diluted peripheral blood of healthy volunteers; for inhibition at 20 µM: Homo sapiens, read-out: TNF-α inhibition rate (%)
Description: Methods: Peripheral blood from healthy volunteers was collected with EDTA anticoagulant tubes. After being diluted 5-fold with 1640 medium (Gibco, USA), the blood was added to 96-well cell culture plates (Costar, USA) and then treated with 10 μL solution of the compound of general formula (I) of the present invention in DMSO (Sigma, USA), the final concentration of the compound was 20 μM with the final concentration of DMSO was 0.2%. After incubation for 60 minutes in an incubator at 37° C. under 5% CO2, 10 μL LPS (Sigma, USA) was added to the reaction system, and the final concentration was 10 ng/mL. After further culturing for 6 hours in the incubator at 37° C. under 5% CO2, the supernatant was collected. The content of TNF-α was determined by ELISA (BD Biosciences, USA). Absorbance was detected at OD450 nm with a microplate reader, with OD 650 nm as reference. The control, a solution containing 0.2% DMSO medium, was as 0% inhibition. Raw data and standard curves were recorded. The four-parameter drug inhibition curve was plotted by XL-fit software and the inhibition rate of each compound was calculated.

MGC-803 cells = test: MTT tumor cell growth inhibition, MGC-803; format: cell-based; details: 48 h, read-out: Tumors growth-inhibitory activity (IC50) MGC-803
Description: (§1) Using MTT method to determine the growth inhibition activity of the matrine compounds on Lovo, MGC-803, Mia-paca2, HpeG-2, A549, k562, and Panc-1 cells in vitro. Logarithmic growth phase of Lovo, MGC-803, Mia-paca2, HpeG-2, A549, k562, Panc-1 cells were inoculated into 96-well plates (purchased from Institute of Biochemical Cells, Chinese Academy of Sciences, and cultured according to conventional tumor cell culture methods) at a density of 4×10^4/mL and 180 μL/well; after the cells adhered to the wall, 20 μL of drug solution was added to each well and matined the final drug concentrations were 0.1 μM, 1 μM, 10 μM, 50 μM, 100 μM respectively. After 48 h, 5 mg/mL MTT solution was added (20 μL/well) and maintained in a CO2 incubator for 3-4 h. After that, discarding the supernatant carefully, and DMSO was added (200 μL/well) when the residual liquid was air-dried, and shook for 0.5-1 h until the residual crystals was dissolved. The absorbance OD was measured at 492 nm by a microplate reader. GraphPad Prism 5 software was used to calculate the IC50 value.

Lovo cells = test: MTT tumor cell growth inhibition, Lovo; format: cell-based; details: 48 h, read-out: Tumors growth-inhibitory activity (IC50) Lovo
Description: as §1

HpeG-2 cells = test: MTT tumor cell growth inhibition, HpeG-2; format: cell-based; details: 48 h, read-out: Tumors growth-inhibitory activity (IC50) HpeG-2
Description: as §1

A549 cells = test: MTT tumor cell growth inhibition, A549; format: cell-based; details: 48 h, read-out: Tumors growth-inhibitory activity (IC50) A549
Description: as §1

Panc-1 cells = test: MTT tumor cell growth inhibition, Panc-1; format: cell-based; details: 48 h, read-out: Tumors growth-inhibitory activity (IC50) Panc-1
Description: as §1

k562 cells = test: MTT tumor cell growth inhibition, k562; format: cell-based; details: 48 h, read-out: Tumors growth-inhibitory activity (IC50) k562
Description: as §1

Mia-paca2 cells = test: MTT tumor cell growth inhibition, Mia-paca2; format: cell-based; details: read-out: Tumors growth-inhibitory activity (IC50) Mia-paca2
Description: as §1

Compound: O=C1c2ccccc2C(=O)N1C1CC[C@@H]2[C@H]3CCCN4CCC[C@H](CN2C1=O)[C@@H]34 (stereo partly drawn) [GJD 28]
inhibition at 20 µM (TNF-α): > 50%

Compound: Cc1cccc2c1C(=O)N(C1CC[C@@H]3[C@H]4CCCN5CCC[C@H](CN3C1=O)[C@@H]45)C2=O (stereo partly drawn) [GJD 29]
inhibition at 20 µM (TNF-α): > 50%

Compound: O=C1c2ccccc2CN1C1CC[C@@H]2[C@H]3CCCN4CCC[C@@H](CN2C1=O)[C@@H]34 (stereo partly drawn) [GJD 30]
inhibition at 20 µM (TNF-α): < 50%

Compound: CC(=O)Nc1cccc2c1CN(C1CC[C@@H]3[C@H]4CCCN5CCC[C@@H](CN3C1=O)[C@@H]45)C2=O (stereo partly drawn) [GJD 33]
inhibition at 20 µM (TNF-α): > 50%

IC50 (MGC-803 cells; Homo sapiens): 50 to 100 µM
IC50 (Lovo cells; Homo sapiens): 50 to 100 µM
IC50 (HpeG-2 cells): < 50 µM
IC50 (A549 cells; Homo sapiens): 50 to 100 µM
IC50 (Panc-1 cells; Homo sapiens): 50 to 100 µM
IC50 (k562 cells; Homo sapiens): < 50 µM
IC50 (Mia-paca2 cells; Homo sapiens, MIA PaCa-2, 48 h): 50 to 100 µM
Compound: O=C(Nc1cccc2c1CN(C1CC[C@@H]3[C@H]4CCCN5CCC[C@@H](CN3C1=O)[C@@H]45)C2=O)c1ccccc1 (stereo partly drawn) [GJD 34]

Compound: Nc1cccc2c1CN(C1CC[C@@H]3[C@H]4CCCN5CCC[C@@H](CN3C1=O)[C@@H]45)C2=O (stereo partly drawn) [GJD 35]
inhibition at 20 µM (TNF-α): > 50%

Compound: Cc1cccc2c1CN(C1CC[C@@H]3[C@H]4CCCN5CCC[C@@H](CN3C1=O)[C@@H]45)C2=O (stereo partly drawn) [GJD 38]
TNF-α inhibition rate (%) (TNF-α): >50%

Compound: Nc1ccc2c(c1)C(=O)N(C1CC[C@@H]3[C@H]4CCCN5CCC[C@@H](CN3C1=O)[C@@H]45)C2 (stereo partly drawn) [GJD 41]
inhibition at 20 µM (TNF-α): > 50%

Compound: Cc1cccc2c1CN(C1CC[C@@H]3[C@H]4CCCN5CCC[C@H](CN3C1=O)[C@@H]45)C2=O (stereo partly drawn) [GJD 44]
inhibition at 20 µM (TNF-α): > 50%

IC50 (MGC-803 cells; Homo sapiens): > 100 µM
IC50 (Lovo cells; Homo sapiens): 50 to 100 µM
IC50 (HpeG-2 cells): 50 to 100 µM
IC50 (A549 cells; Homo sapiens): 50 to 100 µM
IC50 (Panc-1 cells; Homo sapiens): > 100 µM
IC50 (k562 cells; Homo sapiens): 50 to 100 µM
IC50 (Mia-paca2 cells; Homo sapiens, MIA PaCa-2, 48 h): > 100 µM
Compound: Nc1ccc(S(=O)(=O)NC2=CC[C@@H]3[C@H]4CCCN5CCC[C@@H](CN3C2=O)[C@@H]45)cc1 [GJD 47]

Compound: Nc1ccccc1C(=O)NC1CC[C@@H]2[C@H]3CCCN4CCC[C@@H](CN2C1=O)[C@@H]34 (stereo partly drawn) [GJD 49]
inhibition at 20 µM (TNF-α): > 50%

Compound: O=C(NC1CC[C@@H]2[C@H]3CCCN4CCC[C@@H](CN2C1=O)[C@@H]34)c1ccccc1O (stereo partly drawn) [GJD 50]
inhibition at 20 µM (TNF-α): > 50%

IC50 (MGC-803 cells; Homo sapiens): 50 to 100 µM
IC50 (Lovo cells; Homo sapiens): 50 to 100 µM
IC50 (HpeG-2 cells): < 50 µM
IC50 (A549 cells; Homo sapiens): < 50 µM
IC50 (Panc-1 cells; Homo sapiens): 50 to 100 µM
IC50 (k562 cells; Homo sapiens): 50 to 100 µM
IC50 (Mia-paca2 cells; Homo sapiens, MIA PaCa-2, 48 h): 50 to 100 µM
Compound: O=C(NC1CC[C@@H]2[C@H]3CCCN4CCC[C@@H](CN2C1=O)[C@@H]34)c1ccc(OC(F)F)c(OCC2CC2)c1 (stereo partly drawn) [GJD 52]
inhibition at 20 µM (TNF-α): > 50%

Compound: COc1ccc(C(=O)NC2CC[C@@H]3[C@H]4CCCN5CCC[C@@H](CN3C2=O)[C@@H]45)cc1OC1CCCC1 (stereo partly drawn) [GJD 53]
inhibition at 20 µM (TNF-α): > 50%

Compound: CCOc1cc(C(=O)NC2CC[C@@H]3[C@H]4CCCN5CCC[C@@H](CN3C2=O)[C@@H]45)ccc1OC (stereo partly drawn) [GJD 54]
inhibition at 20 µM (TNF-α): > 50%

Compound: O=C1c2cccc(F)c2C(=O)N1C1CC[C@@H]2[C@H]3CCC[N+]4([O-])CCC[C@@H](CN2C1=O)[C@@H]34 (stereo partly drawn) [GJD 65]
TNF-α inhibition rate (%) (TNF-α): ≥50%

IC50 (MGC-803 cells): 50 to 100 µM
IC50 (Lovo cells): < 50 µM
IC50 (HpeG-2 cells): < 50 µM
IC50 (A549 cells): < 50 µM
IC50 (Panc-1 cells): < 50 µM
IC50 (k562 cells): < 50 µM
IC50 (Mia-paca2 cells; 48 h): 50 to 100 µM
Compound: O=C1c2cccc([N+](=O)[O-])c2C(=O)N1C1CC[C@@H]2[C@H]3CCC[N+]4([O-])CCC[C@@H](CN2C1=O)[C@@H]34 (stereo partly drawn) [GJD 66]
TNF-α inhibition rate (%) (TNF-α): <50%

Compound: O=C1CCC[C@@H]2[C@H]3CCC[N+]4([O-])CCC[C@@H](CN12)[C@@H]34 (stereo partly drawn) [Oxymatrine, oxymatrine, reference compound]
inhibition at 20 µM (TNF-α): < 50%

Compound: O=C1CCC[C@@H]2[C@H]3CCCN4CCC[C@H](CN12)[C@@H]34 [Sophoridine, sophoridine, reference compound]
inhibition at 20 µM (TNF-α): < 50%
